{"source": "patent US7163952B2", "about": "“Azole compound and medicinal use thereof” (Japan Tobacco Inc., priority 2001, dated 2007)", "note": "Where a name gives a salt, the structure may show the parent alone.", "data": [{"values": [{"smiles": "CN(Cc1ccc(C(=O)O)cc1)c1nc(-c2ccc(OCc3ccc(C4CCCCC4)cc3)cc2)cs1.CS(=O)(=O)O", "melting point": "175 °C (dec.)"}, {"smiles": "CN(Cc1ccc(C2CCCCC2)cc1)c1ccc(-c2csc(N(C)Cc3ccc(C(=O)[O-])cc3)n2)cc1.[K+]", "melting point": "240 °C"}, {"smiles": "CN(Cc1ccc(C2CCCCC2)cc1)c1ccc(-c2csc(N(C)Cc3ccc(C(=O)O)cc3)n2)cc1.CS(=O)(=O)O", "melting point": "167 to 170 °C"}, {"smiles": "CN(Cc1ccc(C2CCCCC2)cc1)c1ccc(-c2csc(N(C)Cc3ccc(C(=O)O)cc3)n2)cc1.O=S(=O)(O)O", "melting point": "130 °C (dec.)"}, {"smiles": "CN(c1ccc(C(=O)O)cc1)c1nc(-c2ccc(NCc3ccc(C4CCCCC4)cc3)cc2)cs1.CS(=O)(=O)O", "melting point": "231 to 233 °C"}, {"smiles": "CN(c1ccc(C(=O)O)cc1)c1nc(-c2ccc(NCc3ccc(C4CCCCC4)cc3)cc2)cs1.O=S(=O)(O)O", "melting point": "239 °C (dec.)"}, {"smiles": "CN(Cc1ccc(C(=O)O)cc1)c1nc(-c2ccc(OCc3ccc(C4CCCCC4)cc3)cc2)cs1.O=S(=O)(O)O", "melting point": "182 to 183 °C"}, {"smiles": "CC(C)N(c1ccc(C(=O)O)cc1)c1nc(-c2ccc(NC(=O)c3ccc(N4CCOCC4)cc3)cc2)cs1.Cl", "melting point": "230 °C (dec.)"}, {"smiles": "CC(C)N(c1cccc(C(=O)O)c1)c1nc(-c2ccc(NC(=O)c3ccc(N4CCCCC4)cc3)cc2)cs1.Cl", "melting point": "220 °C (dec.)"}, {"smiles": "CC(C)N(c1cccc(C(=O)O)c1)c1nc(-c2ccc(NC(=O)c3ccc(N4CCOCC4)cc3)cc2)cs1.Cl", "melting point": "230 °C (dec.)"}, {"smiles": "CC(C)N(c1ccc(C(=O)O)cc1)c1nc(-c2ccc(NC(=O)c3ccc(N4CCCCC4)cc3)cc2)cs1.Cl", "melting point": "230 °C (dec.)"}, {"smiles": "CC1CCN(c2ccc(C(=O)Nc3ccc(-c4csc(N(c5ccc(C(=O)O)cc5)C(C)C)n4)cc3)cc2)CC1.Cl", "melting point": "230 °C (dec.)"}, {"smiles": "CC1CC(C)CN(c2ccc(C(=O)Nc3ccc(-c4csc(N(c5ccc(C(=O)O)cc5)C(C)C)n4)cc3)cc2)C1.Cl", "note": "(stereo not shown)", "melting point": "152 to 160 °C"}, {"smiles": "CC(C)N(c1ccc(C(=O)O)cc1)c1nc(-c2ccc(NC(=O)c3ccc(N4C[C@@H](C)O[C@@H](C)C4)cc3)cc2)cs1.Cl", "melting point": "230 °C (dec.)"}, {"smiles": "CC(C)N(c1ccc(C(=O)O)c(Cl)c1)c1nc(-c2ccc(NC(=O)c3ccc(N4CCCCC4)cc3)cc2)cs1.Cl", "melting point": "220 °C (dec.)"}, {"smiles": "CC(C)N(c1ccc(C(=O)O)c(Cl)c1)c1nc(-c2ccc(NC(=O)c3ccc(N4CCOCC4)cc3)cc2)cs1.Cl", "melting point": "220 °C (dec.)"}, {"smiles": "CC(C)N(Cc1ccc(C(=O)O)cc1)c1nc(-c2ccc(OCc3cccc(N4CCCCC4)c3)cc2)cs1", "note": "(as salt: hydrochloride) [Example 127, 4-((N-isopropyl-N-(4-(4-(3-piperidinobenzyloxy)phenyl)-2-thiazolyl)amino)methyl)benzoic acid dihydrochloride]", "melting point": "135 to 140 °C"}, {"smiles": "O=C(O)c1ccc(N(CCC2CCCCC2)c2nc(-c3nc4cc(OCc5ccc(Cl)c(Cl)c5)ccc4[nH]3)cs2)cc1", "note": "(as salt: hydrochloride) [Example 185, 4-(N-(2-cyclohexylethyl)-N-(4-(5-(3,4-dichlorobenzyloxy)-2-benzoimidazolyl)-2-thiazolyl)amino)benzoic acid hydrochloride]", "melting point": "173 to 176 °C"}, {"smiles": "O=C(O)c1ccc(Nc2nc(-c3nc4cc(OCc5ccc(Cl)c(Cl)c5)ccc4[nH]3)cs2)cc1", "note": "(as salt: hydrochloride) [Example 186, 4-(4-(5-(3,4-dichlorobenzyloxy)-2-benzoimidazolyl)-2-thiazolylamino)benzoic acid hydrochloride]", "melting point": "220 °C"}, {"smiles": "CN(Cc1ccc(C(=O)O)cc1)c1nc(-c2ccc(OCc3ccc(C4CCCCC4)cc3)cc2)cs1", "note": "(as salt: hydrochloride) [Example 252, 4-((N-(4-(4-(4-cyclohexylbenzyloxy)phenyl)-2-thiazolyl)-N-methylamino)methyl)benzoic acid hydrochloride]", "melting point": "174 °C (dec.)"}, {"smiles": "CN(c1ccc(C(=O)O)cc1)c1nc(-c2ccc(NCc3ccc(C4CCCCC4)cc3)cc2)cs1", "note": "(as salt: hydrochloride) [Example 258, 4-(N-(4-(4-(4-cyclohexylbenzylamino)phenyl)-2-thiazolyl)-N-methylamino)benzoic acid hydrochloride]", "melting point": "234 to 236 °C"}, {"smiles": "CN(Cc1ccc([C@H]2CCC[C@@H](O)C2)cc1)c1ccc(-c2csc(N(C)Cc3ccc(C(=O)O)cc3)n2)cc1", "note": "(relative stereo) [Example 205, cis-4-((N-(4-(4-(N-(4-(3-hydroxycyclohexyl)benzyl)-N-methylamino)phenyl)-2-thiazolyl)-N-methylamino)methyl)benzoic acid]", "melting point": "220 °C"}, {"smiles": "CN(Cc1ccc([C@H]2CCC[C@H](O)C2)cc1)c1ccc(-c2csc(N(C)Cc3ccc(C(=O)O)cc3)n2)cc1", "note": "(relative stereo) [Example 206, trans-4-((N-(4-(4-(N-(4-(3-hydroxycyclohexyl)benzyl)-N-methylamino)phenyl)-2-thiazolyl)-N-methylamino)methyl)benzoic acid]", "melting point": "159 to 161 °C"}, {"smiles": "O=C(O)c1ccc(Nc2nc(-c3ccc(NC(=O)c4ccccc4)cc3)cs2)cc1", "note": "[Example 4, 4-(4-(4-benzoylaminophenyl)-2-thiazolylamino)benzoic acid]", "melting point": "250 °C (dec.)"}, {"smiles": "CC(C)(C)c1ccc(C(=O)Nc2ccc(-c3csc(Nc4ccc(C(=O)O)cc4)n3)cc2)cc1", "note": "[Example 5, 4-(4-(4-(4-tert-butylbenzoylamino)phenyl)-2-thiazolylamino)benzoic acid]", "melting point": "250 °C (dec.)"}, {"smiles": "O=C(O)c1ccc(Nc2nc(-c3ccc(NC(=O)c4ccc(C5CCCCC5)cc4)cc3)cs2)cc1", "note": "[Example 6, 4-(4-(4-(4-cyclohexylbenzoylamino)phenyl)-2-thiazolylamino)benzoic acid]", "melting point": "250 °C (dec.)"}, {"smiles": "CCN(c1ccc(C(=O)O)cc1)c1nc(-c2ccc(NC(=O)c3ccccc3)cc2)cs1", "note": "[Example 7, 4-(N-(4-(4-benzoylaminophenyl)-2-thiazolyl)-N-ethylamino)benzoic acid]", "melting point": "250 °C (dec.)"}, {"smiles": "CCN(c1ccc(C(=O)O)cc1)c1nc(-c2ccc(NC(=O)c3ccc(C4CCCCC4)cc3)cc2)cs1", "note": "[Example 8, 4-(N-(4-(4-(4-cyclohexylbenzoylamino)phenyl)-2-thiazolyl)-N-ethylamino)benzoic acid]", "melting point": "250 °C (dec.)"}, {"smiles": "CC(C)N(c1ccc(C(=O)O)cc1)c1nc(-c2ccc(NC(=O)c3ccccc3)cc2)cs1", "note": "[Example 9, 4-(N-(4-(4-benzoylaminophenyl)-2-thiazolyl)-N-isopropylamino)benzoic acid]", "melting point": "234 to 236 °C"}, {"smiles": "CC(C)N(c1ccc(C(=O)O)cc1)c1nc(-c2ccc(NC(=O)c3ccc(C4CCCCC4)cc3)cc2)cs1", "note": "[Example 10, 4-(N-(4-(4-(4-cyclohexylbenzoylamino)phenyl)-2-thiazolyl)-N-isopropylamino)benzoic acid]", "melting point": "230 °C (dec.)"}, {"smiles": "CCN(c1ccc(C(=O)O)cc1)c1nc(-c2ccc(NC(=O)C3CCCCC3)cc2)cs1", "note": "[Example 11, 4-(N-(4-(4-(cyclohexanecarbonylamino)phenyl)-2-thiazolyl)-N-ethylamino)benzoic acid]", "melting point": "250 °C (dec.)"}, {"smiles": "CC(C)N(c1ccc(C(=O)O)cc1)c1nc(-c2ccc(NC(=O)C3CCCCC3)cc2)cs1", "note": "[Example 12, 4-(N-(4-(4-(cyclohexanecarbonylamino)phenyl)-2-thiazolyl)-N-isopropylamino)benzoic acid]", "melting point": "230 °C (dec.)"}, {"smiles": "CC(C)CN(c1ccc(C(=O)O)cc1)c1nc(-c2ccc(NC(=O)C3CCCCC3)cc2)cs1", "note": "[Example 13, 4-(N-(4-(4-(cyclohexanecarbonylamino)phenyl)-2-thiazolyl)-N-isobutylamino)benzoic acid]", "melting point": "231 to 232 °C"}, {"smiles": "O=C(O)CN(c1ccc(C(=O)O)cc1)c1nc(-c2ccc(NC(=O)C3CCCCC3)cc2)cs1", "note": "[Example 14, 4-(N-carboxymethyl-N-(4-(4-(cyclohexanecarbonylamino)phenyl)-2-thiazolyl)amino)benzoic acid]", "melting point": "210 °C (dec.)"}, {"smiles": "CC(C)CN(c1ccc(C(=O)O)cc1)c1nc(-c2ccc(NC(=O)c3ccccc3)cc2)cs1", "note": "[Example 15, 4-(N-(4-(4-benzoylaminophenyl)-2-thiazolyl)-N-isobutylamino)benzoic acid]", "melting point": "234 to 235 °C"}, {"smiles": "O=C(O)CN(c1ccc(C(=O)O)cc1)c1nc(-c2ccc(NC(=O)c3ccccc3)cc2)cs1", "note": "[Example 16, 4-(N-(4-(4-benzoylaminophenyl)-2-thiazolyl)-N-carboxymethylamino)benzoic acid]", "melting point": "210 °C (dec.)"}, {"smiles": "CC(C)CN(c1ccc(C(=O)O)cc1)c1nc(-c2ccc(NC(=O)c3ccc(C4CCCCC4)cc3)cc2)cs1", "note": "[Example 17, 4-(N-(4-(4-(4-cyclohexylbenzoylamino)phenyl)-2-thiazolyl)-N-isobutylamino)benzoic acid]", "melting point": "230 °C (dec.)"}, {"smiles": "O=C(O)CN(c1ccc(C(=O)O)cc1)c1nc(-c2ccc(NC(=O)c3ccc(C4CCCCC4)cc3)cc2)cs1", "note": "[Example 18, 4-(N-carboxymethyl-N-(4-(4-(4-cyclohexylbenzoylamino)phenyl)-2-thiazolyl)amino)benzoic acid]", "melting point": "230 °C (dec.)"}, {"smiles": "CN(c1ccc(C(=O)O)cc1)c1nc(-c2ccc(NC(=O)c3ccc(C4CCCCC4)cc3)cc2)cs1", "note": "[Example 19, 4-(N-(4-(4-(4-cyclohexylbenzoylamino)phenyl)-2-thiazolyl)-N-methylamino)benzoic acid]", "melting point": "250 °C (dec.)"}, {"smiles": "CN(c1ccc(C(=O)O)cc1)c1nc(-c2ccc(NC(=O)c3ccc(C(C)(C)C)cc3)cc2)cs1", "note": "[Example 20, 4-(N-(4-(4-(4-tert-butylbenzoylamino)phenyl)-2-thiazolyl)-N-methylamino)benzoic acid]", "melting point": "250 °C (dec.)"}, {"smiles": "O=C(O)c1ccc(Nc2nc(-c3ccc(OCc4ccc(C5CCCCC5)cc4)cc3)cs2)cc1", "note": "[Example 21, 4-(4-(4-(4-cyclohexylbenzyloxy)phenyl)-2-thiazolylamino)benzoic acid]", "melting point": "250 °C (dec.)"}, {"smiles": "CN(c1ccc(C(=O)O)cc1)c1nc(-c2ccc(OCc3ccc(C4CCCCC4)cc3)cc2)cs1", "note": "[Example 22, 4-(N-(4-(4-(4-cyclohexylbenzyloxy)phenyl)-2-thiazolyl)-N-methylamino)benzoic acid]", "melting point": "250 °C (dec.)"}, {"smiles": "CCN(c1ccc(C(=O)O)cc1)c1nc(-c2ccc(OCc3ccc(C4CCCCC4)cc3)cc2)cs1", "note": "[Example 23, 4-(N-(4-(4-(4-cyclohexylbenzyloxy)phenyl)-2-thiazolyl)-N-ethylamino)benzoic acid]", "melting point": "239 to 247 °C"}]}]}
